Assay results reported in patent US6699849B1, “Cyclodextrin complexes of benzodiazepines” (Cyclops, ehf., priority 1998, dated 2004).
In brackets after ≈: the same amount, converted by molar mass. Like-named read-outs stand apart in the source and are kept apart here.

Assays:
[1] = First-order rate constant of diazepine ring-closure (regeneration of the benzodiazepine); format: physicochemical; settings: pH 7.5, 37° C.
Procedure: The effect of cyclodextrins and organic solvents on the rate of diazepine ring-closure of several selected benzodiazepines was investigated. Stock solutions containing 1.0×10^−3 M of the benzodiazepine in 0.10 M aqueous hydrochloric acid solution (pH approx. 1.1) were prepared and stored at 37.0° C. The benzodiazepines were in the ring-open form in these stock solutions. Aqueous 0.50 M tris buffer (pH 7.50) solution was prepared. The observed first-order rate constant for the closing (i.e. formation) of the benzodiazepine ring was determined in the following reaction media: a) pure aqueous tris buffer solution; b) aqueous tris buffer solution containing 10% (w/v) cyclodextrin; c) tris buffer solution containing 10% (w/v) cyclodextrin and 10% (v/v) ethanol (EtOH); d) tris buffer solution containing 10% (w/v) cyclodextrin and 50% (v/v) EtOH; e) tris buffer solution containing 10% (w/v) cyclodextrin and 10% (v/v) dimethylsulfoxide (DMSO); and f) tris buffer solution containing 10% (w/v) cyclodextrin and 50% (w/v) DMSO. The stock solution (30 μl) was added to 1.50 ml of the reaction media which had previously been equilibrated to 37.0° C. and the first-order rate constant for the appearance of the closed form determined from the appearance of the closed form as observed on HPLC. Tables 5, 6 and 7 show the effects of cyclodextrins, EtOH and DMSO on the observed first-order rate constant for the regeneration of alprazolam, triazolam and midazolam, respectively. In pure aqueous buffer solutions, addition of EtOH and DMSO decreases somewhat the rate of ring closure, at least in the case of alprazolam and midazolam. Addition of cyclodextrin or the organic solvents have insignificant effect on the pH under these conditions. The dielectric constant of the reaction medium will, however, decrease upon addition of the organic solvents. It is possible that this decrease in the dielectric constant will reduce the ability of the reaction media to stabilize the transition state which could explain the decrease in the observed rate constant. […] The cyclodextrins formed stable complexes with the ring-open form of the drug and, thus, the rate decreased upon addition of cyclodextrin. […] EtOH and DMSO will compete with the diazepine ring-open form for a space in the cyclodextrin cavity resulting in decreased complexation.

[2] = Solubility of midazolam versus pH in buffer, 10% HPβCD and 10% HPβCD + 0.10% HPMC; format: physicochemical; settings: 10% (w/v) HPβCD + 0.10% (w/v) HPMC, FIG. 3
Procedure: Midazolam is a water-insoluble weak base (pKa 6.2) which forms a somewhat water-soluble cation in acidic solution. Solubility (S) of midazolam at several different pH levels was determined in: a) pure aqueous buffer solutions (i.e. without HPβCD and HPMC); b) aqueous buffer solutions containing 10% (w/v) 2-hydroxypropyl-β-cyclodextrin (HPβCD) of molar substitution (MS)=0.3; and c) aqueous solutions containing 10% (w/v) 2-hydroxypropyl-β-cyclodextrin (HPβCD) of molar substitution (MS)=0.3 and 0.10% (w/v) hydroxypropyl methylcellulose (HPMC) 4000. Excess amount of the drug was added to the aqueous solution and the suspension formed was heated in a sealed container in an autoclave (120-140° C. for 20-40 minutes). After equilibration at room temperature (22-23° C.) for seven days, the suspension was filtered through a 0.45 μm membrane filter, diluted with aqueous methanolic solution and the amount of dissolved midazolam determined by a high pressure liquid chromatographic method (HPLC). FIG. 3 illustrates the effect of pH (i.e. the ring-opening) on the solubility of midazolam (pKa 6.2) in pure aqueous buffer solutions (●), aqueous buffer solutions containing 10% (w/v) HPβCD (▪), and aqueous buffer solutions containing both 10% (w/v) HPβCD and 0.10% (w/v) HPMC (♦) at room temperature.

[3] = Solubility of midazolam versus pH with cyclodextrins and 10% (v/v) acetic acid; format: physicochemical
Procedure: Excess amount of the drug was added to the aqueous HPβCD solution and the suspension formed was heated in a sealed container in an autoclave (120-140° C. for 20-40 minutes). After equilibration at room temperature (22-23° C.) for seven days, the suspension was filtered through a 0.45 μm membrane filter, diluted with aqueous methanolic solution and the amount of dissolved midazolam determined by a high pressure liquid chromatographic method (HPLC). FIG. 4 illustrates the effects of cyclodextrins, pH and 10% (v/v) acetic acid on the solubility of midazolam in aqueous solutions: pure aqueous buffer solution (▴); aqueous 10% (v/v) acetate solution (●); 10% (w/v) HPβCD solution containing 0.10% (w/v) HPMC in aqueous 10% (v/v) acetic acid solution (▪); 10% (w/v) aqueous SBEβCD solution in aqueous 10% (v/v) acetate (♦).

[4] = Effect of pH and cyclodextrins on the fraction of the open form (diazepine ring-opening) of benzodiazepines; format: physicochemical
Procedure: The cyclodextrin concentration was 10% (w/v) and the benzodiazepine concentration was 1×10^−4 M. The concentration of the closed form was determined immediately after dissolving the benzodiazepine in the aqueous cyclodextrin solution and again 24 hours later (i.e. after equilibration at 23° C.). Preliminary experiments had shown that equilibrium between the closed and the open form was attained within 3 hours at 23° C.

[5] = cited from earlier work; for solubility in water: room temperature (25° C.)
[6] = cited from earlier work
[7] = format: physicochemical
Source text: It is possible to enhance the cyclodextrin (CD) complexation efficacy, or efficiency, of drugs (D), and other “guest” molecules, by either increasing the apparent stability constant (KC) of the drug-cyclodextrin complex (D-CD) or increasing the apparent intrinsic solubility (S0) of the drug. For example, KC can be increased by addition of water-soluble polymers to the aqueous complexation media and S0 can be increased by ionization of the drug molecule, as described previously. […] On the other hand, if the drug-cyclodextrin complexes are prepared under conditions which ensure enhanced complexation and if the complexation efficiency decreases upon administration, then enhanced drug availability will be observed. Thus, the present invention involves: i) enhancement of the complexation efficiency and ii) reduction of the complexation efficiency after administration. For example, it is possible to enhance the complexation efficiency of many ionizable drugs by preparing the complexes at a pH where the drug is ionized but obtain decreased efficiency upon administration due to pH changes and consequent decreased ionization. One example of such a drug is phenytoin (pKa 8.1). […]

## Cc1ncc2n1-c1ccc(Cl)cc1C(c1ccccc1F)=NC2 [midazolam, 8-chloro-6-(2-fluorophenyl)-1-methyl-4H-imidazo[1,5-a][1,4]benzodiazepine]
[1]; 10% HPβCD, 10% DMSO
  observed first-order rate constant, ring formation: 0.0336 min⁻¹
[1]; 10% HPβCD, 10% EtOH
  observed first-order rate constant, ring formation: 0.0386 min⁻¹
[1]; 10% HPβCD, 50% DMSO
  observed first-order rate constant, ring formation: 0.084 min⁻¹
[1]; 10% HPβCD, 50% EtOH
  observed first-order rate constant, ring formation: 0.0653 min⁻¹
[1]; 10% HPβCD, pure water
  observed first-order rate constant, ring formation: 0.0277 min⁻¹
[1]; 10% RMβCD, 10% DMSO
  observed first-order rate constant, ring formation: 0.0494 min⁻¹
[1]; 10% RMβCD, 10% EtOH
  observed first-order rate constant, ring formation: 0.0424 min⁻¹
[1]; 10% RMβCD, 50% DMSO
  observed first-order rate constant, ring formation: 0.0848 min⁻¹
[1]; 10% RMβCD, 50% EtOH
  observed first-order rate constant, ring formation: 0.0699 min⁻¹
[1]; 10% RMβCD, pure water
  observed first-order rate constant, ring formation: 0.0305 min⁻¹
[1]; 10% SBEβCD, 10% DMSO
  observed first-order rate constant, ring formation: 0.0224 min⁻¹
[1]; 10% SBEβCD, 10% EtOH
  observed first-order rate constant, ring formation: 0.033 min⁻¹
[1]; 10% SBEβCD, 50% DMSO
  observed first-order rate constant, ring formation: 0.0855 min⁻¹
[1]; 10% SBEβCD, 50% EtOH
  observed first-order rate constant, ring formation: 0.065 min⁻¹
[1]; 10% SBEβCD, pure water
  observed first-order rate constant, ring formation: 0.013 min⁻¹
[1]; No CD, 10% DMSO
  observed first-order rate constant, ring formation: 0.138 min⁻¹
[1]; No CD, 10% EtOH
  observed first-order rate constant, ring formation: 0.126 min⁻¹
[1]; No CD, 50% DMSO
  observed first-order rate constant, ring formation: 0.109 min⁻¹
[1]; No CD, 50% EtOH
  observed first-order rate constant, ring formation: 0.0841 min⁻¹
[1]; No CD, pure water
  observed first-order rate constant, ring formation: 0.179 min⁻¹
[2]
  effect of addition of HPMC on complexation efficiency: significantly improves
[3]
  effect of 10% (v/v) acetic acid co-solvent on fraction of the open ring form: small decrease
[3]; cyclodextrin solutions, FIG. 4
  effect of addition of 10% (v/v) acetic acid on complexation: significantly improves
[4]; 10% (w/v) HPβCD, pH 2, approx. 23° C.
  Fraction open: 0.56
[4]; 10% (w/v) HPβCD, pH 3, approx. 23° C.
  Fraction open: 0.18
[4]; 10% (w/v) HPβCD, pH 4, approx. 23° C.
  Fraction open: 0.23
[4]; 10% (w/v) SBEβCD, pH 2, approx. 23° C.
  Fraction open: 0.81
[4]; 10% (w/v) SBEβCD, pH 3, approx. 23° C.
  Fraction open: 0.39
[4]; 10% (w/v) SBEβCD, pH 4, approx. 23° C.
  Fraction open: 0.11
[4]; 10% (w/v) αCD, pH 2, approx. 23° C.
  Fraction open: 0.79
[4]; 10% (w/v) αCD, pH 3, approx. 23° C.
  Fraction open: 0.32
[4]; 10% (w/v) αCD, pH 4, approx. 23° C.
  Fraction open: 0.10
[4]; 10% (w/v) γCD, pH 2, approx. 23° C.
  Fraction open: 0.61
[4]; 10% (w/v) γCD, pH 3, approx. 23° C.
  Fraction open: 0.21
[4]; 10% (w/v) γCD, pH 4, approx. 23° C.
  Fraction open: 0.17
[4]; no cyclodextrin, pH 2, approx. 23° C.
  Fraction open: 0.74
[4]; no cyclodextrin, pH 3, approx. 23° C.
  Fraction open: 0.28
[4]; no cyclodextrin, pH 4, approx. 23° C.
  Fraction open: 0.18

## O=C1NC(=O)C(c2ccccc2)(c2ccccc2)N1 [phenytoin, 5,5-diphenyl-2,4-imidazolidinedione]
[5]; pH 5
  solubility with 25% (w/v) 2-hydroxypropyl-β-cyclodextrin: 5000 µg/mL
  solubility in water: 18 µg/mL (≈ 71.4 µM)
[5]; pH 8
  solubility with 25% (w/v) 2-hydroxypropyl-β-cyclodextrin: 6400 µg/mL
  solubility in water: 32 µg/mL (≈ 127 µM)
[6]
  pKa: 8.1
[7]; pH 5
  solubility enhancement by 25% (w/v) 2-hydroxypropyl-β-cyclodextrin: 280 fold
[7]; pH 8
  solubility enhancement by 25% (w/v) 2-hydroxypropyl-β-cyclodextrin: 200 fold
